Data taken from ChEMBL document CHEMBL3045446, “In vitro antimicrobial and antimycobacterial activity of some chalcones and their derivatives” (2013).
In brackets after ≈: the same amount, converted by molar mass.

Legend:
Format in all cases: functional
Aspergillus niger [1] = assay: Antimicrobial activity against Aspergillus niger MTCC 282 assessed as growth inhibition after 48 hr by agar streak dilution method; conditions: MTCC 282, 48 h
Candida albicans [2] = assay: Antimicrobial activity against Candida albicans MTCC 183 assessed as growth inhibition after 48 hr by agar streak dilution method; conditions: MTCC 183, 48 h
Pseudomonas aeruginosa [3] = assay: Antimicrobial activity against Pseudomonas aeruginosa MTCC 741 assessed as growth inhibition after 24 hr by agar streak dilution method; conditions: MTCC 741, 24 h
Escherichia coli [4] = assay: Antimicrobial activity against Escherichia coli MTCC 739 assessed as growth inhibition after 24 hr by agar streak dilution method; conditions: MTCC 739, 24 h
Shigella flexneri [5] = assay: Antimicrobial activity against Shigella flexneri MTCC1457 assessed as growth inhibition after 24 hr by agar streak dilution method; conditions: MTCC1457, 24 h
Aspergillus niger [6] = assay: Antimicrobial activity against Aspergillus niger MTCC 282 assessed as diameter of growth inhibition zone after 48 hr
Shigella flexneri [7] = assay: Antimicrobial activity against Shigella flexneri MTCC1457 assessed as diameter of growth inhibition zone after 24 hr
Escherichia coli [8] = assay: Antimicrobial activity against Escherichia coli MTCC 739 assessed as diameter of growth inhibition zone after 24 hr
Pseudomonas aeruginosa [9] = assay: Antimicrobial activity against Pseudomonas aeruginosa MTCC 741 assessed as diameter of growth inhibition zone after 24 hr
Salmonella typhi [10] = assay: Antimicrobial activity against Salmonella enterica subsp. enterica serovar Typhi MTCC 733 assessed as diameter of growth inhibition zone after 24 hr
Aspergillus fumigatus [11] = assay: Antimicrobial activity against Aspergillus fumigatus MTCC 343 assessed as diameter of growth inhibition zone after 48 hr
Salmonella typhi [12] = assay: Antimicrobial activity against Salmonella enterica subsp. enterica serovar Typhi MTCC 733 assessed as growth inhibition after 24 hr by agar streak dilution method; conditions: MTCC 733, 24 h
Proteus vulgaris [13] = assay: Antimicrobial activity against Proteus vulgaris MTCC 1771 assessed as diameter of growth inhibition zone after 24 hr
Staphylococcus aureus [14] = assay: Antimicrobial activity against Staphylococcus aureus MTCC 96 assessed as diameter of growth inhibition zone after 24 hr
Aspergillus clavatus [15] = assay: Antimicrobial activity against Aspergillus clavatus MTCC 1323 assessed as growth inhibition after 48 hr by agar streak dilution method; conditions: MTCC 1323, 48 h
Proteus vulgaris [16] = assay: Antimicrobial activity against Proteus vulgaris MTCC 1771 assessed as growth inhibition after 24 hr by agar streak dilution method; conditions: MTCC 1771, 24 h
Bacillus cereus [17] = assay: Antimicrobial activity against Bacillus cereus MTCC 430 assessed as diameter of growth inhibition zone after 24 hr
Aspergillus fumigatus [18] = assay: Antimicrobial activity against Aspergillus fumigatus MTCC 343 assessed as growth inhibition after 48 hr by agar streak dilution method; conditions: MTCC 343, 48 h
Staphylococcus aureus [19] = assay: Antimicrobial activity against Staphylococcus aureus MTCC 96 assessed as growth inhibition after 24 hr by agar streak dilution method; conditions: MTCC 96, 24 h
Candida albicans [20] = assay: Antimicrobial activity against Candida albicans MTCC 183 assessed as diameter of growth inhibition zone after 48 hr
Klebsiella pneumoniae [21] = assay: Antimicrobial activity against Klebsiella pneumoniae MTCC 109 assessed as diameter of growth inhibition zone after 24 hr
Aspergillus clavatus [22] = assay: Antimicrobial activity against Aspergillus clavatus MTCC 1323 assessed as diameter of growth inhibition zone after 48 hr
Klebsiella pneumoniae [23] = assay: Antimicrobial activity against Klebsiella pneumoniae MTCC 109 assessed as growth inhibition after 24 hr by agar streak dilution method; conditions: MTCC 109, 24 h
Bacillus cereus [24] = assay: Antimicrobial activity against Bacillus cereus MTCC 430 assessed as growth inhibition after 24 hr by agar streak dilution method; conditions: MTCC 430, 24 h
[25] = system: Mycobacterium tuberculosis; assay: Antituberculosis activity against Mycobacterium tuberculosis H37Rv assessed as growth inhibition after 12 to 28 days by L-J MIC method; conditions: for MIC: Mycobacterium tuberculosis, H37Rv

Row | SMILES | MIC (Aspergillus niger [1]) [µg/mL] | MIC (Candida albicans [2]) [µg/mL] | MIC (Pseudomonas aeruginosa [3]) [µg/mL] | MIC (Escherichia coli [4]) [µg/mL] | MIC (Shigella flexneri [5]) [µg/mL] | diameter of the inhibition zone (DIZ) (Aspergillus niger [6]) [mm] | diameter of the inhibition zone (DIZ) (Shigella flexneri [7]) [mm] | diameter of the inhibition zone (DIZ) (Escherichia coli [8]) [mm] | diameter of the inhibition zone (DIZ) (Pseudomonas aeruginosa [9]) [mm] | diameter of the inhibition zone (DIZ) (Salmonella typhi [10]) [mm] | diameter of the inhibition zone (DIZ) (Aspergillus fumigatus [11]) [mm] | MIC (Salmonella typhi [12]) [µg/mL] | diameter of the inhibition zone (DIZ) (Proteus vulgaris [13]) [mm] | diameter of the inhibition zone (DIZ) (Staphylococcus aureus [14]) [mm] | MIC (Aspergillus clavatus [15]) [µg/mL] | MIC (Proteus vulgaris [16]) [µg/mL] | diameter of the inhibition zone (DIZ) (Bacillus cereus [17]) [mm] | MIC (Aspergillus fumigatus [18]) [µg/mL] | MIC (Staphylococcus aureus [19]) [µg/mL] | diameter of the inhibition zone (DIZ) (Candida albicans [20]) [mm] | other results
1 | CC(=O)N1N=C(c2ccc(Nc3cc(=O)oc4ccccc34)cc2)CC1c1ccc(Cl)cc1Cl (configuration not stated) | 100 (≈ 203 µM) | 100 (≈ 203 µM) | 25 (≈ 50.8 µM) | 50 (≈ 102 µM) | 50 (≈ 102 µM) | 17 | 17 | 18 | 20 | 17 | 19 | 50 (≈ 102 µM) | 22 | 22 | 100 (≈ 203 µM) | 12.5 (≈ 25.4 µM) | 21 | 50 (≈ 102 µM) | 12.5 (≈ 25.4 µM) | 15 | diameter of the inhibition zone (DIZ) (Klebsiella pneumoniae [21]): 19 mm; diameter of the inhibition zone (DIZ) (Aspergillus clavatus [22]): 16 mm; MIC (Klebsiella pneumoniae [23]): 25 µg/mL (≈ 50.8 µM); MIC (Bacillus cereus [24]): 12.5 µg/mL (≈ 25.4 µM); growth inhibition (GI) [25]: 96%; MIC [25]: 500 µg/mL (≈ 1020 µM)
2 | N#Cc1c(-c2ccc(Cl)cc2)cc(-c2ccc(Nc3cc(=O)oc4ccccc34)cc2)nc1N | 25 (≈ 53.8 µM) | 6.25 (≈ 13.4 µM) | 50 (≈ 108 µM) | 25 (≈ 53.8 µM) | 12.5 (≈ 26.9 µM) | 20 | 23 | 21 | 19 | 24 | 24 | 12.5 (≈ 26.9 µM) | 26 | 24 | 25 (≈ 53.8 µM) | 6.25 (≈ 13.4 µM) | 21 | 12.5 (≈ 26.9 µM) | 12.5 (≈ 26.9 µM) | 26 | diameter of the inhibition zone (DIZ) (Klebsiella pneumoniae [21]): 25 mm; diameter of the inhibition zone (DIZ) (Aspergillus clavatus [22]): 21 mm; MIC (Klebsiella pneumoniae [23]): 6.25 µg/mL (≈ 13.4 µM); MIC (Bacillus cereus [24]): 25 µg/mL (≈ 53.8 µM); growth inhibition (GI) [25]: 98%; MIC [25]: 100 µg/mL (≈ 215 µM)
3 | COc1ccc(-c2cc(-c3ccc(Nc4cc(=O)oc5ccccc45)cc3)nc(N)n2)cc1 | 12.5 (≈ 28.6 µM) | 25 (≈ 57.3 µM) | 12.5 (≈ 28.6 µM) | 25 (≈ 57.3 µM) | 50 (≈ 115 µM) | 23 | 19 | 22 | 21 | 19 | 20 | 50 (≈ 115 µM) | 24 | 22 | 12.5 (≈ 28.6 µM) | 12.5 (≈ 28.6 µM) | 21 | 25 (≈ 57.3 µM) | 12.5 (≈ 28.6 µM) | 24 | diameter of the inhibition zone (DIZ) (Klebsiella pneumoniae [21]): 20 mm; diameter of the inhibition zone (DIZ) (Aspergillus clavatus [22]): 23 mm; MIC (Klebsiella pneumoniae [23]): 25 µg/mL (≈ 57.3 µM); MIC (Bacillus cereus [24]): 12.5 µg/mL (≈ 28.6 µM); growth inhibition (GI) [25]: 98%; MIC [25]: 62.5 µg/mL (≈ 143 µM)
4 | COc1ccc(-c2cc(-c3ccc(Nc4cc(=O)oc5ccccc45)cc3)nc(N)n2)cc1OC | 6.25 (≈ 13.4 µM) | 6.25 (≈ 13.4 µM) | 12.5 (≈ 26.8 µM) | 6.25 (≈ 13.4 µM) | 12.5 (≈ 26.8 µM) | 27 | 24 | 25 | 23 | 22 | 25 | 12.5 (≈ 26.8 µM) | 21 | 27 | 12.5 (≈ 26.8 µM) | 25 (≈ 53.6 µM) | 20 | 12.5 (≈ 26.8 µM) | 6.25 (≈ 13.4 µM) | 26 | diameter of the inhibition zone (DIZ) (Klebsiella pneumoniae [21]): 23 mm; diameter of the inhibition zone (DIZ) (Aspergillus clavatus [22]): 23 mm; MIC (Klebsiella pneumoniae [23]): 12.5 µg/mL (≈ 26.8 µM); MIC (Bacillus cereus [24]): 12.5 µg/mL (≈ 26.8 µM); growth inhibition (GI) [25]: 98%; MIC [25]: 50 µg/mL (≈ 107 µM)
5 | CC(=O)N1N=C(c2ccc(Nc3cc(=O)oc4ccccc34)cc2)CC1c1ccc([N+](=O)[O-])cc1 (configuration not stated) | 100 (≈ 213 µM) | 100 (≈ 213 µM) | 100 (≈ 213 µM) | 100 (≈ 213 µM) | 100 (≈ 213 µM) | 14 | 13 | 14 | 11 | 17 | 13 | 100 (≈ 213 µM) | <10 | 12 | 50 (≈ 107 µM) | 100 (≈ 213 µM) | 11 | 100 (≈ 213 µM) | 100 (≈ 213 µM) | 15 | diameter of the inhibition zone (DIZ) (Klebsiella pneumoniae [21]): 13 mm; diameter of the inhibition zone (DIZ) (Aspergillus clavatus [22]): 17 mm; MIC (Klebsiella pneumoniae [23]): 100 µg/mL (≈ 213 µM); MIC (Bacillus cereus [24]): 100 µg/mL (≈ 213 µM); growth inhibition (GI) [25]: 96%; MIC [25]: 500 µg/mL (≈ 1070 µM)
6 | COc1ccc(/C=C/C(=O)c2ccc(Nc3cc(=O)oc4ccccc34)cc2)cc1OC | 25 (≈ 58.5 µM) | 100 (≈ 234 µM) | 50 (≈ 117 µM) | 25 (≈ 58.5 µM) | 25 (≈ 58.5 µM) | 21 | 20 | 22 | 18 | 16 | 17 | 100 (≈ 234 µM) | 19 | 21 | 100 (≈ 234 µM) | 50 (≈ 117 µM) | 19 | 50 (≈ 117 µM) | 25 (≈ 58.5 µM) | 17 | diameter of the inhibition zone (DIZ) (Klebsiella pneumoniae [21]): 17 mm; diameter of the inhibition zone (DIZ) (Aspergillus clavatus [22]): 16 mm; MIC (Klebsiella pneumoniae [23]): 100 µg/mL (≈ 234 µM); MIC (Bacillus cereus [24]): 50 µg/mL (≈ 117 µM); growth inhibition (GI) [25]: 97%; MIC [25]: 200 µg/mL (≈ 468 µM)
7 | N#Cc1c(-c2ccc(O)cc2O)cc(-c2ccc(Nc3cc(=O)oc4ccccc34)cc2)nc1N | 12.5 (≈ 27 µM) | 12.5 (≈ 27 µM) | 6.25 (≈ 13.5 µM) | 12.5 (≈ 27 µM) | 6.25 (≈ 13.5 µM) | 22 | 26 | 24 | 27 | 28 | 25 | 3.12 (≈ 6.75 µM) | 23 | 22 | 6.25 (≈ 13.5 µM) | 12.5 (≈ 27 µM) | 26 | 6.25 (≈ 13.5 µM) | 12.5 (≈ 27 µM) | 23 | diameter of the inhibition zone (DIZ) (Klebsiella pneumoniae [21]): 30 mm; diameter of the inhibition zone (DIZ) (Aspergillus clavatus [22]): 27 mm; MIC (Klebsiella pneumoniae [23]): 3.12 µg/mL (≈ 6.75 µM); MIC (Bacillus cereus [24]): 6.25 µg/mL (≈ 13.5 µM); growth inhibition (GI) [25]: 97%; MIC [25]: 100 µg/mL (≈ 216 µM)
